Test results reported in patent US7563903B2, “Acylaminothiazole derivatives, their preparation and their therapeutic use” (Sanofi-Aventis, priority 2003, dated 2009).

test system: not given; test: not given; details: not given

melting point [°C]	Structure (SMILES)
83.4	CCC[C@H](NC(=O)[C@@H](O)C(C)(C)C)C(=O)Nc1ncc(-c2ccccc2COc2ccc(Cl)c(C)c2)s1 [compound 72, (2S)—N-(5-{2-[(4-chloro-3-methylphenoxy)methyl]phenyl}-1,3-thiazol-2-yl)-2-{[(2S)-2-hydroxy-3,3-dimethylbutanoyl]amino}pentanamide]
71.1	CCC[C@H](NC(=O)[C@@H](O)C(C)(C)C)C(=O)Nc1ncc(-c2ccccc2COc2cccc(Cl)c2Cl)s1 [compound 73, (2S)—N-(5-{2-[(2,3-dichlorophenoxy)methyl]phenyl}-1,3-thiazol-2-yl)-2-{[(2S)-2-hydroxy-3,3-dimethylbutanoyl]amino}pentanamide]
82	CCC[C@H](NC(=O)[C@@H](O)C(C)(C)C)C(=O)Nc1ncc(-c2ccccc2COc2cccc(F)c2F)s1 [compound 74, (2S)—N-(5-{2-[(2,3-difluorophenoxy)methyl]phenyl}-1,3-thiazol-2-yl)-2-{[(2S)-2-hydroxy-3,3-dimethylbutanoyl]amino}pentanamide]

Further lines, the compound ahead of its results:

Structure (SMILES)	melting point [°C]
C[C@H](NC(=O)[C@@H](O)C(C)(C)C)C(=O)Nc1ncc(-c2ccccc2COC2CCCCC2)s1 [compound 66, (2S)—N-{(1S)-2-[(5-{2-[(cyclohexyloxy)methyl]phenyl}-1,3-thiazol-2-yl)amino]-1-methyl-2-oxoethyl}-2-hydroxy-3,3-dimethylbutanamide]	104.8
CCC[C@H](NC(=O)[C@@H](O)C(C)(C)C)C(=O)Nc1ncc(-c2ccccc2COc2cc(C)ccc2Cl)s1 [compound 67, (2S)—N-(5-{2-[(2-chloro-5-methylphenoxy)methyl]phenyl}-1,3-thiazol-2-yl)-2-{[(2S)-2-hydroxy-3,3-dimethylbutanoyl]amino}pentanamide]	82
CCC[C@H](NC(=O)[C@@H](O)C(C)(C)C)C(=O)Nc1ncc(-c2ccccc2COc2cccc(C)c2)s1 [compound 68, (2S)-2-{[(2S)-2-hydroxy-3,3-dimethylbutanoyl]amino}-N-(5-{2-[(3-methylphenoxy)methyl]phenyl}-1,3-thiazol-2-yl)pentanamide]	80.6
CCC[C@H](NC(=O)[C@@H](O)C(C)(C)C)C(=O)Nc1ncc(-c2ccccc2COc2ccccc2C#N)s1 [compound 69, (2S)—N-(5-{2-[(2-cyanophenoxy)methyl]phenyl}-1,3-thiazol-2-yl)-2-{[(2S)-2-hydroxy-3,3-dimethylbutanoyl]amino}pentanamide]	99
CCC[C@H](NC(=O)[C@@H](O)C(C)(C)C)C(=O)Nc1ncc(-c2ccccc2COc2cc(C)c(C)cc2Cl)s1 [compound 71, (2S)—N-(5-{2-[(2-chloro-4,5-dimethylphenoxy)methyl]phenyl}-1,3-thiazol-2-yl)-2-{[(2S)-2-hydroxy-3,3-dimethylbutanoyl]amino}pentanamide]	85

molecular target: T1, gamma-secretase (Homo sapiens, UniProt P49768, M146L); test: β-amyloid cellular trial: inhibition of β-amyloid peptide (β-A4) production, ELISA; format: cell-based; details: CHO-K1 line coexpressing the CT100 of APP and PSI M146L clone 30-12, 24-25 h incubation, ELISA of supernatants, read-out: EC50 (50% effective concentration)
T1 construct: expressed in transfected cells; host or cells: CHO-K1 (clone 30-12)
Source text: For the β-amyloid cellular trial, the CHO-K1 line coexpressing the CT100 of APP and PSI M146L clone 30-12 is used. The line targets the inhibition of gamma-secretase. Presenilin is linked to the gamma-secretase activity (Wolfe M S, Haass C., The Role of presenilins in gamma-secretase activity, J. Biol. Chem., Feb. 23, 2001 276(8), 5413-6) and its coexpression with the amyloid protein or its N-terminal fragment causes an increase in the secretion of the A1-42 peptide (β-A4) thus generating a pharmacological tool which makes it possible to evaluate inhibition by the compounds of formula (I) of the production of the β-A4 peptide. The inoculation of the 96-well culture plates is carried out at the rate of 1×10^5 cells per well in 150 μl of incubation medium. […]
The quantity of bound peptide is detected in an indirect manner in the presence of a competitor corresponding to the truncated peptide, peptide 1-28 coupled to biotin which is then detected with streptavidin coupled to alkaline phosphatase. The substrate, p-Nitrophenyl Phosphate (pNPP FAST p-Nitrophenyl Phosphate, Sigma N2770), gives a yellow soluble reaction product which can be read at 405 nm. […] After incubating for 30 minutes at room temperature, the reaction is stopped by the addition of 100 μl per well of 0.1M EDTA and the reading is carried out at 405 nm.

EC50 [nM]	Structure (SMILES)
295	CCC[C@H](NC(=O)[C@@H](O)C(C)(C)C)C(=O)Nc1ncc(-c2ccccc2COc2ccc(Cl)c(Cl)c2)s1 [compound 50, (2S)—N-(5-{2-[(3,4-dichlorophenoxy)methyl]phenyl}-1,3-thiazol-2-yl)-2-{[(2S)-2-hydroxy-3,3-dimethylbutanoyl]amino}pentanamide]
